Measured values: patent US6476019B1, “Spirocyclic ligands for sigma receptors, and libraries and methods of use thereof” (Sepracor Inc., priority 1999, dated 2002)
Values after ≈ are worked out from the molar mass of the structure shown. Like-named read-outs stand apart in the source and are kept apart here.

Columns and labels:
[1] = test system: [3H]haloperidol binding sites in guinea pig brain; conditions: cited from earlier work
CYP2C9 [2] = molecular target: T1, CYP2C9 (Homo sapiens, UniProt P11712)
T1 sequence (P11712 whole entry): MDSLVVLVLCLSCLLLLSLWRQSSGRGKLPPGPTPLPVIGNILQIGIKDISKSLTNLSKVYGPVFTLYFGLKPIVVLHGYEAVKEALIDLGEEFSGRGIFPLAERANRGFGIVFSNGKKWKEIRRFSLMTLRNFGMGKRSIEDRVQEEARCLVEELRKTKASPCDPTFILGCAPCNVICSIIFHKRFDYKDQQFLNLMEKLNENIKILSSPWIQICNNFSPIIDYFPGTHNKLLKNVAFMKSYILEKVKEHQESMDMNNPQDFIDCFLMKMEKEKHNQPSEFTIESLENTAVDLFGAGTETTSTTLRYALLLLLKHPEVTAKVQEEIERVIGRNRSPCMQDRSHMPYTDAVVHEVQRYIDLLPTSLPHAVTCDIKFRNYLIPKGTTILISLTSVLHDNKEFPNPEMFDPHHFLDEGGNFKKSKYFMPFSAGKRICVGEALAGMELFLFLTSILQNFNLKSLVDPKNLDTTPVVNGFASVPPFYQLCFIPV

[3] = molecular target: T2, sigma-1 receptor (guinea pig brain) (Cavia porcellus, UniProt Q60492); assay: Antagonism of haloperidol binding to guinea pig sigma-1 receptors; conditions: sigma-1, guinea pig brain; for % Inhibition: test concentration not given
T2 construct: from tissue; host or cells: guinea pig brain
T2 sequence (Q60492 whole entry): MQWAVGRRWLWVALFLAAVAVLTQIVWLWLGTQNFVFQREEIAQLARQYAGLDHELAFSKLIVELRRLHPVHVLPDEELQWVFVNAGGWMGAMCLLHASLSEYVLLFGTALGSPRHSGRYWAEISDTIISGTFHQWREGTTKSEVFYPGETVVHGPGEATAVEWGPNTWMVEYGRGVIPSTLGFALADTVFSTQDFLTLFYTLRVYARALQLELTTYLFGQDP

Permeability = type: in vitro ADME; conditions: not told; read-out: Permeability PupperX10^6 cm/s
CYP2C19 [4] = molecular target: T3, CYP2C19 (Homo sapiens, UniProt P33261)
T3 sequence (P33261 whole entry): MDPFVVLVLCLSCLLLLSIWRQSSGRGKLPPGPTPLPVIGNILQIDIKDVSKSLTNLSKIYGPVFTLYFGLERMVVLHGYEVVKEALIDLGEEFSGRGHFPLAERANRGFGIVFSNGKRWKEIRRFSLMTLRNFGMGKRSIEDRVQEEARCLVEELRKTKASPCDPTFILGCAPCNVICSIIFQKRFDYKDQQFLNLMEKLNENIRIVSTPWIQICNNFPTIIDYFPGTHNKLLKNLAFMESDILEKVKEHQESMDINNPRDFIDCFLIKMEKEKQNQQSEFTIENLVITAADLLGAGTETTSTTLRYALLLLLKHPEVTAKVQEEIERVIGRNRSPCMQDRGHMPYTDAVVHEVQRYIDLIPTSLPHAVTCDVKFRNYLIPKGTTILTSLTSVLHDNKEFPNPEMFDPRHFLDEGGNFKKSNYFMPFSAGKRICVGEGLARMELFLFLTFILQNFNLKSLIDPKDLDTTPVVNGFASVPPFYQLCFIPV

CYP3A4 [5] = molecular target: T4, CYP3A4 (Homo sapiens, UniProt P08684)
T4 sequence (P08684 whole entry): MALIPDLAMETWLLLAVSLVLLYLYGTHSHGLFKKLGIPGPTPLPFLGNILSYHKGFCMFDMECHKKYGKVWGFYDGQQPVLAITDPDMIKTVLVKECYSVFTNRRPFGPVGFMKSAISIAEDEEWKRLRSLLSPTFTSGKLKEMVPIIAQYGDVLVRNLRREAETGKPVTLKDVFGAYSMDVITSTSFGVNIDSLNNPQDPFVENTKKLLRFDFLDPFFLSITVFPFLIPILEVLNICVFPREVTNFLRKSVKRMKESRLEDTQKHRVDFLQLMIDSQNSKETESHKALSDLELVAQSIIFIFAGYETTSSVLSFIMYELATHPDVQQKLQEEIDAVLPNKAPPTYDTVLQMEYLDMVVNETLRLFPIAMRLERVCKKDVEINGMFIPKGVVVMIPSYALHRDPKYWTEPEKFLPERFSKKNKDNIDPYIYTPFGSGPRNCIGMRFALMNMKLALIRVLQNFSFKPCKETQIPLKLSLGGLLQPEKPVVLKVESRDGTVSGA

CYP1A2 [6] = molecular target: T5, CYP1A2 (Homo sapiens, UniProt P05177); assay: In Vitro Metabolism (isozymes of P450) CYP1A2
T5 sequence (P05177 1-516): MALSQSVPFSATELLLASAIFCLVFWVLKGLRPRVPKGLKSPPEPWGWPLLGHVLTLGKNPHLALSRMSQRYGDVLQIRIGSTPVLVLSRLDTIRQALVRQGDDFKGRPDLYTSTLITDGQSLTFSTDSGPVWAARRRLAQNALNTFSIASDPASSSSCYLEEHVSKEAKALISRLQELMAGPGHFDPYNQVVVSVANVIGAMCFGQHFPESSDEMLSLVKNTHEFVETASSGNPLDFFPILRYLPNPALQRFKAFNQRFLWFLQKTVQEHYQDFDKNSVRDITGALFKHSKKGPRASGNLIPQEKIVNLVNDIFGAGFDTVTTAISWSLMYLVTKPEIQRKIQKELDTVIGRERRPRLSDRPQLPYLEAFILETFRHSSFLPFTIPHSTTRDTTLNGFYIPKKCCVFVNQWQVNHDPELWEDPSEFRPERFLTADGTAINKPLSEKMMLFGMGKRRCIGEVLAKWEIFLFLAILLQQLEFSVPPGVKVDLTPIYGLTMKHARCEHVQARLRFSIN

CYP2D6 [7] = molecular target: T6, CYP2D6 (Homo sapiens, UniProt P10635)
T6 sequence (P10635 whole entry): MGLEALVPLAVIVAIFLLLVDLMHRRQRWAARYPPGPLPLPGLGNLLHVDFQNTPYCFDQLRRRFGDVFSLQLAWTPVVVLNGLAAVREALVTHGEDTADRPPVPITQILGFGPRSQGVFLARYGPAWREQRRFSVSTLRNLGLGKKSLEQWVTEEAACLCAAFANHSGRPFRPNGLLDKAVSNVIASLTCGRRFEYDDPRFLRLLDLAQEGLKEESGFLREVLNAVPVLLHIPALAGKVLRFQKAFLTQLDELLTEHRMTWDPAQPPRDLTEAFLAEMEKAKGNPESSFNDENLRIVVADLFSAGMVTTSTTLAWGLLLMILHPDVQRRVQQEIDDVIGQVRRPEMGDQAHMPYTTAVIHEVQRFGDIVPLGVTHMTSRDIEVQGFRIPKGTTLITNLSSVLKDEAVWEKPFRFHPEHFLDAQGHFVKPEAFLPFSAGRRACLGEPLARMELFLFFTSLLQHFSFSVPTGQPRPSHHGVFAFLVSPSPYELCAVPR

[8] = pH 7.5
Caspase-3 [9] = test system: Caspase-3
Membrane Integrity [10] = test system: Membrane Integrity
Cell Viability [11] = test system: Cell Viability
DNA Synthesis = assay: Safety Assessment: DNA Synthesis
RedOx State [12] = test system: RedOx State
Protein Synthesis = assay: Safety Assessment: Protein Synthesis
GSH Level [13] = test system: GSH Level
human serotonin 5-HT2A = human serotonin 5-HT2A (Homo sapiens, UniProt P28223); assay: Behavioral receptor assays: 5-HT2A; type: binding; conditions: read-out: Receptors (IC50) 5-HT2A
Sequence of human serotonin 5-HT2A (P28223 whole entry): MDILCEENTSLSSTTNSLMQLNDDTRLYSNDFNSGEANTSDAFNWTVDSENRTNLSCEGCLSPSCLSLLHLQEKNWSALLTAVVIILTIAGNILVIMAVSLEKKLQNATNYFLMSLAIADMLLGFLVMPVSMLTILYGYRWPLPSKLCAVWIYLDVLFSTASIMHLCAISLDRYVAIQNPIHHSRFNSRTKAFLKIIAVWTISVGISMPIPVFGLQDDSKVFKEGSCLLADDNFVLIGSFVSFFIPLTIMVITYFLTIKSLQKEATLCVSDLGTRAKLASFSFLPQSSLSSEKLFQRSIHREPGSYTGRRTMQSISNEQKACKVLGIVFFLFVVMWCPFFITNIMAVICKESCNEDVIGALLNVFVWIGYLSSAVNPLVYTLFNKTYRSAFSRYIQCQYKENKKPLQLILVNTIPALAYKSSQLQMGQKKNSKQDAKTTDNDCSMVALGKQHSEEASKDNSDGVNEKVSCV
Protocol: (§1) Various compounds of the present invention (19, 31, and 32) were evaluated in a group of assays based on mammalian cellular receptors associated with behavior. The group consisted of assays base on human dopamine D1, D2L, D3, D4.2, D4.4, D4.7, and D5 receptors, and the transporter; human serotonin 5-HT1A, 5-HT1B, 5-HT1D, 5-HT2A, 5-HT2B, 5-HT2C, 5-HT3, 5-HT5A, 5-HT6, and 5-HT7 receptors, and the human serotonin transporter; guinea pig 5-HT4 and sigma-1 receptors; rat sigma-2 and muscarinic receptors; and human NK1-3 receptors. The following table presents a subset of the results of these assays.

sigma-1 receptors = sigma-1 receptors (Cavia porcellus, UniProt Q60492); assay: Behavioral receptor assays: sigma-1; type: binding; conditions: guinea pig
Sequence of sigma-1 receptors (Q60492 whole entry): as the sequence (Q60492 whole entry) above
Protocol: as §1

CYP3A4 [14] = molecular target: T4, CYP3A4; assay: In Vitro Metabolism (isozymes of P450) CYP3A4
[15] = molecular target: T7, guinea pig sigma receptor (Cavia porcellus, UniProt Q60492); assay: Guinea pig sigma receptor assay; type: binding; conditions: read-out: IC50 Against Guinea Pig Sigma Receptor
T7 construct: having guinea pig as a receptor source; from tissue; host or cells: guinea pig
T7 sequence (Q60492 whole entry): as above
Protocol: (§2) The ability of test compounds to displace sigma ligands in vitro was determined by the methods of de Costa et al. (FEBS Lett. 251:53 (1989)) and De Haven-Hudkine et al. (Eur. J. Pharmacol. 227:372 (1992)) having guinea pig as a receptor source. Whereas, the methods of Gamapatju et al. (J. Pharm.&Exp. 289:251 (1999)) were utilized for human sigma receptors.

CYP2D6 [16] = molecular target: T6, CYP2D6; assay: In Vitro Metabolism (isozymes of P450) CYP2D6
human sigma receptor = human sigma receptor (Homo sapiens, UniProt Q99720); assay: Human sigma receptor assay; type: binding; conditions: read-out: IC50 Against Human Sigma Receptor
Sequence of human sigma receptor (Q99720 whole entry): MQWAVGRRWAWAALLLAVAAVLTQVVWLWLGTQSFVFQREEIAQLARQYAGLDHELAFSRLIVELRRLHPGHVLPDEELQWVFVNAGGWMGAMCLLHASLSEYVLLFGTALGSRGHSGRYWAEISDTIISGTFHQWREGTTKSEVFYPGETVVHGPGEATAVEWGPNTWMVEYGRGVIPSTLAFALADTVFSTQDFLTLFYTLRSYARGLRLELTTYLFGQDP
Protocol: as §2

CYP2C9 [17] = molecular target: T1, CYP2C9; assay: In Vitro Metabolism (isozymes of P450) CYP2C9
Male Wistar rats = assay: MK-801-Induced Psychosis Model; type: in vivo, rat; conditions: rat, 0.5, 1.0 and 5.0 mg/kg i.p.; MK-801 0.3 mg/kg i.p.
Description: The non-competitive NMDA receptor antagonist MK-801 induces stereotypies and hyperactivity in rodents (1) by interacting with the NMDA receptor-associated ion channel. Phencyclidine, which also interferes with the NMDA receptor, produces psychotic effects in humans similar in many respects to schizophrenia. […] Therefore the MK-801-induced activity and stereotypies in rats may represent an appropriate animal model to test the potential efficacy of antipsychotic drugs.
Male Wistar rats (Iffa Crédo, St Germain/l'Arbresle, France), weight 250-300 g were housed 2 per cage on a 12 h/12 h light dark cycle (lights on at 7.00 a.m.) at a room temperature of 21±2° C. for a minimum of 5 days before testing. All animals had access to commercial food and tap water ad libitum.
On the day of the experiment, rats were treated with either reference drug vehicle, the reference drugs haloperidol or clozapine the test compound vehicle or test compounds. After administration, the rats were returned to their home cages for 15 minutes. […] The remaining rats treated with placebo received a second injection of vehicle. The standard injection volume was 2.0 ml/kg. After 10 minutes in the home cages, rats were transferred to the test box (Plexiglas, 29×12×12 cm), 5 minutes before the assessment for accomodation. The test box was cleaned with 70% ethanol before each assessment. Stereotypies, defined as wall-contacts with the snout, and locomotion, defined as turn-rounds of 180°, were assessed during 5 minute periods.

GSH Level [18] = assay: Safety Assessment: GSH Level
Membrane Integrity [19] = assay: Safety Assessment: Membrane Integrity
RedOx State [20] = assay: Safety Assessment: RedOx State
Caspase-3 [21] = assay: Safety Assessment: Caspase-3 Induction
Cell Viability [22] = assay: Safety Assessment: Cell Viability
CYP2C19 [23] = molecular target: T3, CYP2C19; assay: In Vitro Metabolism (isozymes of P450) CYP2C19
CYP1A2 [24] = molecular target: T5, CYP1A2

Structure (SMILES): CC(C)=CCN1CCC2(C)c3cc(O)ccc3CC1C2C (single isomer, unassigned; (+)) [(+)-pentazocine]
- potency in displacing [3H]haloperidol relative to spiperone [1]: about 10 times

Structure (SMILES): O=C1CCC2(CCNCC2)Nc2ccccc21 [Compound 11, 3,4-Dihydrospiro[5H-1-benzazepine-2(1H), 4′-piperidin]-5-one]
- CYP2C9 (CYP2C9 [2]): <10 % inhibition
- IC50 [3]: > 1000 nM
- % Inhibition [3]: <50%
- fraction unbound (in vitro): 0.3
- Papp (Permeability): 4.7 ×10⁻⁶ cm/s
- CYP2C19 (CYP2C19 [4]): <10 % inhibition
- CYP3A4 (CYP3A4 [5]): <10 % inhibition
- CYP1A2 (CYP1A2 [6]): <10 % inhibition
- CYP2D6 (CYP2D6 [7]): 15 % inhibition
- Log D7.5 [8]: 0.48
- solubility (physchem): 202 µM (≈ 46.5 µg/mL)
- Caspase-3 Induction % Induction (Caspase-3 [9]): <10 % Induction
- Membrane Integrity (Membrane Integrity [10]): <10 % inhibition
- Cell Viability (Cell Viability [11]): <10 % inhibition
- DNA Synthesis (DNA Synthesis): <10 % inhibition
- RedOx State (RedOx State [12]): <10 % inhibition
- Protein Synthesis (Protein Synthesis): 42 % inhibition
- GSH Level (% Control) (GSH Level [13]): <10 % Control

Structure (SMILES): O=C1CCC2(CCN(CCc3ccccc3)CC2)Nc2ccccc21 [Compound 19]
- % Inhibition [3]: >50%
- IC50 (human serotonin 5-HT2A): < 1000 nM
- IC50 (sigma-1 receptors): < 100 nM

Structure (SMILES): O[C@H]1CCC2(CCN(Cc3ccc(F)cc3)CC2)Nc2ccccc21 [Compound 49]
- CYP3A4 (CYP3A4 [14]): 17 % inhibition
- IC50 [15]: < 100 nM
- CYP2D6 (CYP2D6 [16]): 44 % inhibition
- IC50 (human sigma receptor): < 100 nM
- Papp (Permeability): 27.5 ×10⁻⁶ cm/s
- Metabolic Stability (% parent remaining) (Metabolic Stability): 69 % parent remaining
- Log D7.5 (Log D7.5): 1.59
- CYP1A2 (CYP1A2 [6]): 13 % inhibition
- CYP2C9 (CYP2C9 [17]): 18 % inhibition
- fraction unbound (Protein Binding): 0.37
- MK-801-induced locomotion (Male Wistar rats): did not reduce
- MK-801-induced stereotypies (Male Wistar rats): did not reduce
- GSH Level (% Control) (GSH Level [18]): <10 % Control
- solubility (Solubility): 181 µM (≈ 61.6 µg/mL)
- Membrane Integrity (Membrane Integrity [19]): <10 % inhibition
- RedOx State (RedOx State [20]): 15 % inhibition
- Caspase-3 Induction % Induction (Caspase-3 [21]): <10 % Induction
- Cell Viability (Cell Viability [22]): <10 % inhibition
- CYP2C19 (CYP2C19 [23]): 19 % inhibition
- DNA Synthesis (DNA Synthesis): <10 % inhibition
- Protein Synthesis (Protein Synthesis): <10 % inhibition

Structure (SMILES): O[C@@H]1CCC2(CCN(Cc3ccc(F)cc3)CC2)Nc2ccccc21 [Compound 50]
- CYP3A4 (CYP3A4 [14]): 19 % inhibition
- IC50 [15]: < 100 nM
- CYP2D6 (CYP2D6 [16]): 31 % inhibition
- IC50 (human sigma receptor): < 1000 nM
- Papp (Permeability): 25.8 ×10⁻⁶ cm/s
- Metabolic Stability (% parent remaining) (Metabolic Stability): 87 % parent remaining
- Log D7.5 (Log D7.5): 1.62
- CYP1A2 (CYP1A2 [6]): 14 % inhibition
- CYP2C9 (CYP2C9 [17]): 19 % inhibition
- fraction unbound (Protein Binding): 0.38
- MK-801-induced locomotion (Male Wistar rats): caused a reduction
- MK-801-induced stereotypies (Male Wistar rats): caused a reduction
- GSH Level (% Control) (GSH Level [18]): <10 % Control
- solubility (Solubility): 205 µM (≈ 69.8 µg/mL)
- Membrane Integrity (Membrane Integrity [19]): <10 % inhibition
- RedOx State (RedOx State [20]): 12 % inhibition
- Caspase-3 Induction % Induction (Caspase-3 [21]): <10 % Induction
- Cell Viability (Cell Viability [22]): <10 % inhibition
- CYP2C19 (CYP2C19 [23]): 19 % inhibition
- DNA Synthesis (DNA Synthesis): <10 % inhibition
- Protein Synthesis (Protein Synthesis): <10 % inhibition

Structure (SMILES): O=C1CCC2(CCN(Cc3nc4ccccc4[nH]3)CC2)Nc2ccccc21 [Compound 21, 1′-(2-methylbenzimidazole)-3,4-dih drospiro[5H-1-benzazepine-2(1H)-4′-piperidin]-5-one]
- CYP3A4 (CYP3A4 [14]): 69 % inhibition
- IC50 [3]: < 1000 nM
- % Inhibition [3]: >50%
- CYP2D6 (CYP2D6 [16]): 100 % inhibition
- Papp (Permeability): 1.95 ×10⁻⁶ cm/s
- Metabolic Stability (% parent remaining) (Metabolic Stability): 17 % parent remaining
- Log D7.5 (Log D7.5): 1.22
- CYP2C9 (CYP2C9 [17]): 19 % inhibition
- fraction unbound (Protein Binding): 0.01
- GSH Level (% Control) (GSH Level [18]): <10 % Control
- solubility (Solubility): 210 µM (≈ 75.6 µg/mL)
- Membrane Integrity (Membrane Integrity [19]): <10 % inhibition
- RedOx State (RedOx State [20]): 33 % inhibition
- Caspase-3 Induction % Induction (Caspase-3 [21]): <10 % Induction
- Cell Viability (Cell Viability [22]): <10 % inhibition
- CYP2C19 (CYP2C19 [23]): 20 % inhibition
- CYP1A2 (CYP1A2 [24]): 20 % inhibition
- DNA Synthesis (DNA Synthesis): 29 % inhibition
- Protein Synthesis (Protein Synthesis): 14 % inhibition
